According to PubChem BioAssay AID720495 (Broad Institute, 2013):
Results filed as inconclusive are left out. The source made the active and inactive calls. The rule behind the calls is not given here.

Target: Protein AF-9 (Homo sapiens) (UniProt P42568)
Assay: AF9 binding to AF4 blockers, potency – biochemical, cherry-picked samples, plate reader, dose response (AID 720495)
Conditions: biochemical protein-protein interaction assay; for activity change, negative = inhibition: at 10 µM (top of the series)

Protein AF-9 (Homo sapiens), sequence (P42568 whole entry, looked up): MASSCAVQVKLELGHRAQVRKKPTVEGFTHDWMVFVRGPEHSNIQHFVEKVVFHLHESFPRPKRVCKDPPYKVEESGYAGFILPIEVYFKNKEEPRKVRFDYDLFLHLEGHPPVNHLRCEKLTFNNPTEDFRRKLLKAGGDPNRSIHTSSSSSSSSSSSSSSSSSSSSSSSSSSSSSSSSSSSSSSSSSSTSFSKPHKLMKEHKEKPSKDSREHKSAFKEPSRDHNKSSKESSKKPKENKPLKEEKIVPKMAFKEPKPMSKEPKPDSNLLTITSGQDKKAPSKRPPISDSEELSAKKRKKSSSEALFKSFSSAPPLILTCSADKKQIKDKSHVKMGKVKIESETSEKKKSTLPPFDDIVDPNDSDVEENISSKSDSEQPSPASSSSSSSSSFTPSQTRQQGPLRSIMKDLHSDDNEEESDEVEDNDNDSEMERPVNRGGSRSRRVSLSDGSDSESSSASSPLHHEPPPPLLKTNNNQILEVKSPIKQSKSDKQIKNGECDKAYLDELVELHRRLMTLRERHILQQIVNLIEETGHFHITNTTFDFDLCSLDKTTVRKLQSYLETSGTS

Row | SMILES | activity change, negative = inhibition | AC50
1 | O=C(Cc1cccnc1)N1CC(=O)N2[C@H](C1)[C@H](c1ccc(C3=CCCC3)cc1)[C@@H]2CO | inactive | 
2 | Cc1cccc(Nc2cc(C)c3c(O)cccc3n2)c1C | inactive | 
3 | CCN(CC)CCSc1nc2ccccc2c(=S)n1-c1ccccc1 | inactive | 
4 | Cc1cccc(N=NC(=S)NNc2cccc(C)c2)c1 |  | 0.212 µM
5 | CCN(CC)c1ccc(/C=C/c2ccc3ccc(OC)cc3[n+]2CC)cc1 |  | 2.36 µM
6 | Cc1cc(N=Nc2ccc(Cl)cc2)cc(CN2CCCC2)c1O | inactive | 
7 | CN(CCc1ccccc1)C(=O)c1ccc(NC(=O)Cc2ccc(NC(=O)C3CCN(C(=O)C4CCCC4)CC3)cc2)cc1 |  | < 0.08 µM
8 | CCN1CCCc2cc(CN(CCN3CCOCC3)C(=S)Nc3cccc(C)c3)ccc21 | inactive | 
9 | Oc1cc(Nc2cccnc2)cc2cccnc12 |  | 6.03 µM
10 | CCN(CC)c1ccc(N=Cc2ccc([N+](=O)[O-])o2)cc1 | inactive | 
11 | CN1CCN(CCCCOc2ccccc2C=O)CC1 |  | 10.6 µM
12 | COc1cccc2sc(N(CCCN(C)C)C(=O)c3ccc(S(=O)(=O)N4CCCc5ccccc54)cc3)nc12 |  | 4.68 µM
13 | CCOc1ccc(Nc2ccc([N+](=O)[O-])c3nonc23)cc1 | inactive | 
14 | CC(=O)c1cccc2c(O)c(C3=Nc4ccccc4C3=O)[nH]c12 |  | 3.11 µM
15 | Oc1ccc(O)c(C=NNC(=S)NC2CC3CC2C2C=CCC32)c1 (stereo not drawn) |  | 8.16 µM
16 | COc1ccccc1NC(c1cccnc1)c1ccc2cccnc2c1O (stereo not drawn) | inactive | 
17 | O=C(C[C@H]1CC[C@@H]2[C@H](COC[C@@H](O)CN2S(=O)(=O)c2ccc(F)cc2)O1)NCC1CCCCC1 | inactive | 
18 | C[C@@H]1CN([C@@H](C)CO)C(=O)c2cc(N(C)C)ccc2O[C@@H]1CN(C)Cc1ccc(-c2ccccc2)cc1 |  | 8.93 µM
19 | CC(C)Nc1ccc(Nc2ccccc2)cc1 |  | 10.9 µM

Row | SMILES | activity change, negative = inhibition | AC50
20 | CCCCOc1ccc2c(c1)C(=O)c1cc(O)ccc1-2 | inactive | 
21 | Cn1cc(CN2CCC(C(=O)NC(c3ccc(F)cc3)c3ccc4ccccc4n3)CC2)c2ccccc21 (stereo not drawn) | inactive | 
22 | COc1ccccc1N1CCN(/N=C\c2sccc2C)CC1 | inactive | 
23 | C#CCOCCOCCOCCNc1nc(N2CCN(C(=O)[C@H](CCCCN)n3cc([C@@H](N)C(C)CC)nn3)CC2)nc(N2CCN(C(=O)[C@H](CCCCN)n3cc([C@@H](N)CC(C)C)nn3)CC2)n1 (stereo partly drawn) |  | 0.702 µM
24 | CC1NC(=O)NC1CCCCCC(=O)Nc1ccc(F)cc1 (stereo not drawn) |  | < 0.08 µM
25 | CCC[C@@H](CN1CCC[C@H]1CN1C(N)=NC[C@@H]1Cc1ccccc1)N1C[C@@H](Cc2ccccc2)N(CCc2ccc(Cl)c(Cl)c2)C1=N |  | 5.41 µM
26 | COC(=O)C1=CC(C(=O)c2cccs2)=NN(c2ccc(OC)cc2)C1C(=O)OC (stereo not drawn) | inactive | 
27 | C[C@@H]1CN([C@@H](C)CO)C(=O)Cc2cc(N(C)C)ccc2O[C@H]1CN(C)Cc1ccc(Cl)c(Cl)c1 | inactive | 
28 | CN(C)c1ccc(NC2=C(Cl)C(=O)c3ccccc3C2=O)cc1 | inactive | 
29 | Cc1cc(C)cc(OCC(O)CN2CCC(CN3C(=O)c4cccc5cccc(c45)C3=O)CC2)c1 (stereo not drawn) | inactive | 
30 | CC1(C)CC(Nc2ccc(Nc3ccccc3)cc2)CC(C)(C)N1 |  | 6.78 µM
31 | Cc1c(C(=O)NCC(c2ccco2)N(C)C)oc2c(Cl)cccc12 (stereo not drawn) |  | 7.77 µM
32 | CC[n+]1c(/C=C/C=C/c2ccc(N(C)C)cc2)sc2ccccc21 |  | 0.522 µM
33 | COc1ccc(NCc2nn(CC(=O)c3ccc(Br)cc3)c3[n+]2CCCCC3)cc1 |  | 8.83 µM
34 | CCCC(=O)NC(c1ccc(OC)cc1)c1ccc2cccnc2c1O (stereo not drawn) |  | 0.865 µM
35 | COc1cc(Nc2c3ccccc3nc3ccccc23)cc(OC)c1OC |  | 0.234 µM
36 | COc1cc(OC)c2c(-c3ccccc3)cc(=O)oc2c1C(CCN1CCOCC1)c1ccc(N(C)C)cc1 (stereo not drawn) | inactive | 
37 | Cc1cc(N=Nc2ccc3ccccc3c2)ccc1O |  | 9.43 µM
38 | Cc1ccc(NC(=S)N/N=C/c2ccc([N+](=O)[O-])s2)cc1 | inactive | 
